The text below walks through data of ChEMBL document CHEMBL1150045, “Callyspongenols A-C, new cytotoxic C22-polyacetylenic alcohols from a red sea sponge, Callyspongia species” (J Nat Prod, 2003).

Values after ≈ are worked out from the molar mass of the structure shown.

One assay has as its system P388. Nature of the assay: Cytotoxicity against mouse P388 cells. It counts as functional, cell-based.
As to `C#C/C=C\CCCCCCC#CC#CCCC/C=C\C#CCO` [CALLYSPONGENOL B], the IC50 came out at 10 µg/mL (≈ 32.6 µM).

Compound `C#C/C=C\CCCC/C=C\C#CC#CCCC/C=C\C#CCO` [CALLYSPONGENOL C] gave an IC50 of 2.2 µg/mL (≈ 7.23 µM).

On to `C#C/C=C\CCCCC#CCCCCC#CCCCC#CCO`, for which the half-maximal inhibitory concentration (IC50) turned out to be 2.2 µg/mL (≈ 7.13 µM).

`COc1cccc2c1C(=O)c1c(O)c3c(c(O)c1C2=O)C[C@@](O)(C(=O)CO)C[C@@H]3O[C@H]1C[C@H](N)[C@H](O)[C@H](C)O1` [DOXORUBICIN]: the IC50 stood at 0.04 µg/mL (≈ 0.0736 µM).

Consider `C#C/C=C\CCCCC#CC#CC#CCCC/C=C\C#CCO` [DEHYDROISOPHONOCHALYNOL], for which the IC50 was 2.2 µg/mL (≈ 7.27 µM).

The test system of the next assay is HeLa. Nature of the assay: Cytotoxicity against human HeLa cells. It counts as functional, cell-based.
`C#C/C=C\CCCCCCC#CC#CCCC/C=C\C#CCO` [CALLYSPONGENOL B]: inhibition was half-maximal at 10 µg/mL (≈ 32.6 µM) (IC50).

Regarding `C#C/C=C\CCCC/C=C\C#CC#CCCC/C=C\C#CCO` [CALLYSPONGENOL C], the IC50 turned out to be 3.9 µg/mL (≈ 12.8 µM).

Turning to `C#C/C=C\CCCCC#CCCCCC#CCCCC#CCO`, the IC50 was 4.5 µg/mL (≈ 14.6 µM).

The compound `COc1cccc2c1C(=O)c1c(O)c3c(c(O)c1C2=O)C[C@@](O)(C(=O)CO)C[C@@H]3O[C@H]1C[C@H](N)[C@H](O)[C@H](C)O1` [DOXORUBICIN] displayed an IC50 of 0.066 µg/mL (≈ 0.121 µM).

Turning to `C#C/C=C\CCCCC#CC#CC#CCCC/C=C\C#CCO` [DEHYDROISOPHONOCHALYNOL], the half-inhibitory concentration (IC50) was found to be 5.1 µg/mL (≈ 16.9 µM).

Usually IC50 stands for the concentration that inhibits the measured activity by half. Read a low IC50 as greater potency.
